Reference: patent publication US6500853B1, “Inhibitors of phospholipase enzymes” (Genetics Institute, LLC, priority 1998, dated 2002)
Where two headings read alike, the source gives them in different places.

Columns and labels:
cPLA2 = molecular target: T1, cPLA2 (Homo sapiens, UniProt P47712); test: Coumarin Assay (cPLA2 inhibition); format: biochemical; settings: for inhibition at 20 µM: CONCENTRATION 20 micromolar
T1 sequence (P47712 1-749): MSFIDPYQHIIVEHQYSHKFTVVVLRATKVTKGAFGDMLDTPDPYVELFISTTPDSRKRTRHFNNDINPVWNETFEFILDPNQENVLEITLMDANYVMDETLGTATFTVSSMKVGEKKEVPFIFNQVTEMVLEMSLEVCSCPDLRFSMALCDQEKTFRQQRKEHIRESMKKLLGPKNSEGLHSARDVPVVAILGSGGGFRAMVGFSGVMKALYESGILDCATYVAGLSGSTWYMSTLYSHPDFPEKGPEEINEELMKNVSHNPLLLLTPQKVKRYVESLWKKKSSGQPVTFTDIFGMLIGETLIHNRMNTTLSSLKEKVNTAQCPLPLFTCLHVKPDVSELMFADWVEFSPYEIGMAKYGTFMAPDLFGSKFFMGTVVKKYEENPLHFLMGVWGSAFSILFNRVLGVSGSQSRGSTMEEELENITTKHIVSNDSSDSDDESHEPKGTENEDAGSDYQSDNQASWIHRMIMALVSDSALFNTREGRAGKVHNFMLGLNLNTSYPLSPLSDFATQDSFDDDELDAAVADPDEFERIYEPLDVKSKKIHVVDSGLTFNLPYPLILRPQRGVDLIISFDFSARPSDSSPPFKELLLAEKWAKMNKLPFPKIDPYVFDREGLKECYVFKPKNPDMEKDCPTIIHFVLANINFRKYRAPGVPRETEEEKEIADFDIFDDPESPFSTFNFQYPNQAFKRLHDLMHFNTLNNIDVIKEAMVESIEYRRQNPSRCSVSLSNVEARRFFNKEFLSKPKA
In short: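 Percent inhibition at the stated concentration, from the rate of 460 nm emission rise (360 nm excitation) per minute. Reaction started by adding 4 μg enzyme to compound and 60 μM 7-hydroxycoumarinyl 6-heptenoate in Hepes buffer pH 7.5 with 1 mM EDTA.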

[1] = tested on: Rat Carrageenan-Induced Footpad Edema; test: Rat Carrageenan-Induced Footpad Edema Test; format: in vivo, male Sprague Dawley rats; settings: footpad volume 3 hours after carrageenan; for PERCENT INHIBITION: PO; for inhibition in vivo at 5 mg/kg: Rattus norvegicus, iv, 3 h, IV, read-out: PERCENT INHIBITION
[2] = CONCENTRATION 50 micromolar, read-out: PERCENT INHIBITION @

SMILES: Cc1ccccc1S(=O)(=O)NC(=O)c1ccc(Cc2cn(C(c3ccccc3)c3ccccc3)c3ccc(NC(=O)OC4CCCC4)cc23)cc1 [Example 53, cyclopentyl N-{1-benzhydryl-3-[4-({[(2-methylphenyl)sulfonyl]1amino}carbonyl)benzyl]-1H-indol-5-yl}carbamate]
- PERCENT INHIBITION @ (cPLA2; CONCENTRATION 11 micromolar): 50%
- PERCENT INHIBITION @ (cPLA2; CONCENTRATION 15.5 micromolar): 50%
- PERCENT INHIBITION ([1]; 2 mg/Kg): −1.81%
- PERCENT INHIBITION ([1]; 10 mg/Kg): 11.35%

SMILES: COc1cc(C(=O)NS(=O)(=O)C(F)(F)F)ccc1Cc1cn(C(c2ccccc2)c2ccccc2)c2ccc(NS(=O)(=O)Cc3ccccc3)cc12 [Example 45, N-[4-({1-benzhydryl-5-[(benzylsulfonyl)amino]-1H-indol-3-yl}methyl)-3-methoxybenzoyl](trifluoro)methanesulfonamide]
- inhibition at 1.75 µM (cPLA2; CONCENTRATION 1.75 micromolar, read-out: PERCENT INHIBITION @): 50%
- inhibition at 1.8 µM (cPLA2; CONCENTRATION 1.8 micromolar, read-out: PERCENT INHIBITION @): 50%
- inhibition at 1.9 µM (cPLA2; CONCENTRATION 1.9 micromolar, read-out: PERCENT INHIBITION @): 50%
- inhibition at 2 µM (cPLA2; CONCENTRATION 2 micromolar, read-out: PERCENT INHIBITION @): 50%
- inhibition at 2.1 µM (cPLA2; CONCENTRATION 2.1 micromolar, read-out: PERCENT INHIBITION @): 50%
- inhibition at 2.5 µM (cPLA2; CONCENTRATION 2.5 micromolar, read-out: PERCENT INHIBITION @): 74%
- inhibition in vivo at 5 mg/kg [1]: 10.2%

SMILES: O=C(O)CCc1ccc(OCCc2c(CO)n(C(c3ccccc3)c3ccccc3)c3ccc(Cl)cc23)cc1 [Example 167, 3-(4-{2-[1-benzhydryl-5-chloro-2-(hydroxymethyl)-1H-indol-3-yl]ethoxy}phenyl)propanoic acid]
- inhibition at 1.3 µM (cPLA2; Conc 1.3 uM, read-out: % Inhibition): 50%

SMILES: O=C(O)c1ccc(OCCc2c(CS(=O)(=O)c3ccccc3)n(C(c3ccccc3)c3ccccc3)c3ccc(Cl)cc23)cc1 [Example 153, 4-(2-{1-benzhydryl-5-chloro-2-[(phenylsulfonyl)methyl]-1H-indol-3-yl}ethoxy)benzoic acid]
- inhibition at 3 µM (cPLA2; Conc 3 uM, read-out: % Inhibition): 50%

SMILES: O=C(O)C1CC1Cc1cn(C(c2ccc(O)cc2)c2ccc(O)cc2)c2cc(Cl)ccc12 (centres unmarked) [Example 129, 2-({1-[bis(4-hydroxyphenyl)methyl]-6-chloro-1H-indol-3-yl}methyl)cyclopropanecarboxylic acid]
- inhibition at 1.1 µM (cPLA2; CONCENTRATION 1.1 micromolar, read-out: PERCENT INHIBITION @): 50%

SMILES: Cc1c(CCS(=O)(=O)c2ccc(CCC(=O)O)cc2)c2cc(Cl)ccc2n1C(c1ccccc1)c1ccccc1 [Example 169, 3-(4-{[2-(1-Benzhydryl-5-chloro-2-methyl-1H-indol-3-yl)ethyl]sulfonyl}phenyl)propanoic acid]
- inhibition at 0.45 µM (cPLA2; Conc 0.45 uM, read-out: % Inhibition): 50%

SMILES: O=C1NC(=O)/C(=C\c2cn(CCCOc3cccc(Cc4ccccc4)c3)c3ccccc23)S1 [Example 82A, 5-((E)-{1-[3-(3-benzylphenoxy)propyl]-1H-indol-3-yl}methylidene)-1,3-thiazolane-2,4-dione]
- inhibition at 46 µM (cPLA2; CONCENTRATION 46 micromolar, read-out: PERCENT INHIBITION @): 50%
- inhibition at 50 µM (cPLA2; [2]): 50%

SMILES: Cc1c(C(=O)O)c2cc(OCc3ccccc3)ccc2n1Cc1ccccc1 [Example 111, 1-benzyl-5-(benzyloxy)-2-methyl-1H-indole-3-carboxylic acid]
- PERCENT INHIBITION @ (cPLA2; CONCENTRATION 50 micromolar): 15%
- inhibition at 50 µM (cPLA2; [2]): 16%

SMILES: Cc1c(CCS(=O)(=O)c2ccc(C(=O)O)cc2)c2ccc(Cl)cc2n1C(c1ccccc1)c1ccccc1 [Example 140, 4-{[2-(1-benzhydryl-6-chloro-2-methyl-1H-indol-3-yl)ethyl]sulfonyl}benzoic acid]
- inhibition at 2.5 µM (cPLA2; Conc 2.5 uM, read-out: % Inhibition): 50%

SMILES: CCCn1cc(Cc2ccc(C(=O)NS(=O)(=O)c3ccccc3C)cc2OC)c2cc(NC(=O)OC3CCCC3)ccc21 [Example 2, Cyclopentyl N-{3-[2-methoxy-4-({[(2-methylphenyl)sulfonyl]amino}carbonyl)benzyl]-1-propyl-1H-indol-5-yl}carbamate]
- inhibition in vivo at 5 mg/kg [1]: 15.9%

SMILES: O=C(O)Cc1cn(Cc2ccccc2)c2ccc(-c3ccccc3)cc12 [Example 81, 2-(1-benzyl-5-phenyl-1H-indol-3-yl)acetic acid]
- inhibition at 70 µM (cPLA2; CONCENTRATION 70 micromolar, read-out: PERCENT INHIBITION @): 50%
- inhibition at 100 µM (cPLA2; CONCENTRATION 100 micromolar, read-out: PERCENT INHIBITION @): 46%

SMILES: Cc1c(C(=O)Nc2cc(C(=O)O)cc(C(=O)O)c2)c2cc(OCc3ccccc3)ccc2n1Cc1ccc(C(F)(F)F)cc1C(F)(F)F [Example 108, 5-[({5-(benzyloxy)-1-[2,4-bis(trifluoromethyl)benzyl]-2-methyl-1H-indol-3-yl}carbonyl)amino]isophthalic acid]
- inhibition at 6.25 µM (cPLA2; CONCENTRATION 6.25 micromolar, read-out: PERCENT INHIBITION @): 67%
- inhibition at 20 µM (cPLA2; read-out: PERCENT INHIBITION @): 15%
- inhibition at 48 µM (cPLA2; CONCENTRATION 48 micromolar, read-out: PERCENT INHIBITION @): 50%
- inhibition at 50 µM (cPLA2; [2]): 46%

SMILES: O=C(O)CCc1ccc(S(=O)(=O)CCc2c(CO)n(C(c3ccccc3)c3ccccc3)c3ccc(Cl)cc23)cc1 [Example 168, 3-[4-({2-[1-benzhydryl-5-chloro-2-(hydroxymethyl)-1H-indol-3-yl]ethyl}sulfonyl)phenyl]propanoic acid]
- inhibition at 2.4 µM (cPLA2; Conc 2.4 uM, read-out: % Inhibition): 50%

SMILES: COc1cc(OCC(=O)O)ccc1Cc1cn(C(c2ccccc2)c2ccccc2)c2cc(Cl)ccc12 [Example 118, 2-{4-[(1-benzhydryl-6-chloro-1H-indol-3-yl)methyl]-3-methoxyphenoxy}acetic acid]
- inhibition at 0.6 µM (cPLA2; CONCENTRATION 0.6 micromolar, read-out: PERCENT INHIBITION @): 50%

SMILES: COc1cc(C(=O)NS(=O)(=O)c2ccccc2C)ccc1Cc1cn(CC2CC2)c2ccc(NC(=O)OC3CCCC3)cc12 [Example 21, Cyclopentyl N-{1-(cyclopropylmethyl)-3-[2-methoxy-4-({[(2-methylphenyl)sulfonyl]amino}carbonyl)benzyl]-1H-indol-5-yl}carbamate]
- inhibition at 20 µM (cPLA2; read-out: PERCENT INHIBITION @): 50%

SMILES: Cc1c(C(=O)O)c2cc(OCc3ccccc3)ccc2n1Cc1ccc(C(F)(F)F)cc1C(F)(F)F [Example 107, 5-(benzyloxy)-1-[2,4-bis(trifluoromethyl)benzyl]-2-methyl-1H-indole-3-carboxylic acid]
- inhibition at 37 µM (cPLA2; CONCENTRATION 37 micromolar, read-out: PERCENT INHIBITION @): 50%
- inhibition at 50 µM (cPLA2; [2]): 43%
- inhibition at 71 µM (cPLA2; CONCENTRATION 71 micromolar, read-out: PERCENT INHIBITION @): 50%
- inhibition at 80 µM (cPLA2; CONCENTRATION 80 micromolar, read-out: PERCENT INHIBITION @): 50%

SMILES: O=C(O)c1ccc(OCCc2c(COCc3ccccc3[N+](=O)[O-])n(C(c3ccccc3)c3ccccc3)c3ccc(Cl)cc23)cc1 [Example 155, 4-[2-(1-benzhydryl-5-chloro-2-{[(2-nitrobenzyl)oxy]methyl}-1H-indol-3-yl)ethoxy]benzoic acid]
- inhibition at 2.2 µM (cPLA2; Conc 2.2 uM, read-out: % Inhibition): 50%

SMILES: O=C(O)CC(=O)Nc1ccc(Cc2cn(C(c3ccccc3)c3ccccc3)c3cc(Cl)ccc23)cc1 [Example 124, sodium 3-{4-[(1-benzhydryl-6-chloro-1H-indol-3-yl)methyl]anilino}-3-oxopropanoic acid]
- inhibition at 1.3 µM (cPLA2; CONCENTRATION 1.3 micromolar, read-out: PERCENT INHIBITION @): 50%

SMILES: O=C(O)c1ccc(Cc2cn(C(c3ccccc3)c3ccccc3)c3cc(Cl)ccc23)c(O)c1 [Example 130, ′4-[(1-benzhydryl-6-chloro-1H-indol-3-yl)methyl]-3-hydroxybenzoic acid]
- PERCENT INHIBITION @ (cPLA2; CONCENTRATION 2 micromolar): 50%

SMILES: COc1ccc(C(c2ccccc2)n2cc(Cc3ccc(C(=O)O)cc3OC)c3ccc(Cl)cc32)cc1 (centres unmarked) [Example 133, ′4-({6-chloro-1-[(4-methoxyphenyl)(phenyl)methyl]-1H-indol-3-yl}methyl)-3-methoxybenzoic acid]
- PERCENT INHIBITION @ (cPLA2; CONCENTRATION 0.3 micromolar): 50%
